{"source": "ChEMBL document CHEMBL5465560", "about": "“Selectivity Literature for EUbOPEN Chemogenomic Library” (2024)", "key": {"[1]": {"target": "RAC-beta serine/threonine-protein kinase (Homo sapiens) (UniProt P31751)", "sequence (P31751 whole entry)": "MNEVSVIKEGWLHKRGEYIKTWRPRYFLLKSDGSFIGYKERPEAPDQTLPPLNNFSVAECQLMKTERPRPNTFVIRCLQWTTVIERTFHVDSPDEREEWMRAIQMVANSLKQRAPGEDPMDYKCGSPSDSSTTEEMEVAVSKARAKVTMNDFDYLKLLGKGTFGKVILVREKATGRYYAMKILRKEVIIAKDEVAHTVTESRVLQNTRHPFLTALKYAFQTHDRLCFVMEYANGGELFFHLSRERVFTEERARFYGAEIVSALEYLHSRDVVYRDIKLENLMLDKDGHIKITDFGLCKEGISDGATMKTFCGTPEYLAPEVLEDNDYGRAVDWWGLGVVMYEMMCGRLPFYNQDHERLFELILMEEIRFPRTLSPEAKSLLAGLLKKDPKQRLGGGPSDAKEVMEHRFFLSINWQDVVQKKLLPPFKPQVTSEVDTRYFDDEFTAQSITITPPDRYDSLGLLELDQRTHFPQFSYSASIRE", "assay": "Selectivity interaction (KinomeScan (DiscoverX)) EUB0001619a AKT2", "settings": "at 1 µM"}, "[2]": {"target": "Protein kinase C delta type (Homo sapiens) (UniProt Q05655)", "sequence (Q05655 whole entry, looked up)": "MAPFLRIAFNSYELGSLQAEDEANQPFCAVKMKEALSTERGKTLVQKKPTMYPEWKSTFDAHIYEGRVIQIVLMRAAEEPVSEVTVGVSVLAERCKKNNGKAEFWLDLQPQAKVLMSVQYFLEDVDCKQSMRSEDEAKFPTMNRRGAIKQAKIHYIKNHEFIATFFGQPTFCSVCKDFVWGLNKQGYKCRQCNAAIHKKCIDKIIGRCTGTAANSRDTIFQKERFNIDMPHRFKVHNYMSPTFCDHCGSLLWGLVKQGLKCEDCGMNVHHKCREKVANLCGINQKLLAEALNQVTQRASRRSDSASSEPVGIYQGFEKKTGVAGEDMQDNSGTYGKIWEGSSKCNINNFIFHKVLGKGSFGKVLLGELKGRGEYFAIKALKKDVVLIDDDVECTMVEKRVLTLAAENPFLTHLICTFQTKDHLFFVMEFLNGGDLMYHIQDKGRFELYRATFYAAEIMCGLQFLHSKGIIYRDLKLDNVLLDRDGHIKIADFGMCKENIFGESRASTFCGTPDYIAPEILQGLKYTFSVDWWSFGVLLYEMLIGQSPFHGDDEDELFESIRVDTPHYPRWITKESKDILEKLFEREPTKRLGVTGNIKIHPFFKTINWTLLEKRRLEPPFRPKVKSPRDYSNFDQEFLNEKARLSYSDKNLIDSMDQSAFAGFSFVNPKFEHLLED", "assay": "Selectivity interaction (KinomeScan (DiscoverX)) EUB0000229b PRKCD", "settings": "at 10 µM"}, "[3]": {"target": "T1, Dual serine/threonine and tyrosine protein kinase (Homo sapiens) (UniProt Q6XUX3)", "T1 sequence (whole entry)": "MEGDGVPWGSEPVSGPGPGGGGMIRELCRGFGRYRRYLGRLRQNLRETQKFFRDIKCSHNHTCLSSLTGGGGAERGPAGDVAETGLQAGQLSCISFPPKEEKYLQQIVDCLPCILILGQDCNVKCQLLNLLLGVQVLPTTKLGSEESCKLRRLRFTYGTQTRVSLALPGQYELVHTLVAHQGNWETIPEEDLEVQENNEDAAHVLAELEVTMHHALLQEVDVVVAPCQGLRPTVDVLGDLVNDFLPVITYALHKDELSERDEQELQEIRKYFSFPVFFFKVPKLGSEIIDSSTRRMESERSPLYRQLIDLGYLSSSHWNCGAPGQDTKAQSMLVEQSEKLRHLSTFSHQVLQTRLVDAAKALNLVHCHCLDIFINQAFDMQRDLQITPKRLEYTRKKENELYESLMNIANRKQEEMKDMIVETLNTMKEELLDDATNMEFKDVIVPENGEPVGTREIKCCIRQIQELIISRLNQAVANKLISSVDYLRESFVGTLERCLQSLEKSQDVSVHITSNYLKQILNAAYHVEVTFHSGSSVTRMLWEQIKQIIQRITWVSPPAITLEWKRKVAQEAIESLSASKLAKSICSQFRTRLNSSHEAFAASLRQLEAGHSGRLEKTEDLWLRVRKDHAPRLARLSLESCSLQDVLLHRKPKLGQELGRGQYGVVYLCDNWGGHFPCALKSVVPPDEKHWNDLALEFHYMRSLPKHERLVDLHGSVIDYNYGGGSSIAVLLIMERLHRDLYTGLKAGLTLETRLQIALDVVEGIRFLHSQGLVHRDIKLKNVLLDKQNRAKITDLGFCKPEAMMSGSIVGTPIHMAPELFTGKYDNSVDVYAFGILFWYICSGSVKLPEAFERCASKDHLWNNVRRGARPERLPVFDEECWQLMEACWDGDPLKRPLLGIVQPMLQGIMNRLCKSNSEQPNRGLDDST", "assay": "Selectivity interaction (KinomeScan (DiscoverX)) EUB0000666a DSTYK", "settings": "at 10 µM"}, "[4]": {"target": "Cyclin-dependent kinase 18 (Homo sapiens) (UniProt Q07002)", "sequence (Q07002 whole entry)": "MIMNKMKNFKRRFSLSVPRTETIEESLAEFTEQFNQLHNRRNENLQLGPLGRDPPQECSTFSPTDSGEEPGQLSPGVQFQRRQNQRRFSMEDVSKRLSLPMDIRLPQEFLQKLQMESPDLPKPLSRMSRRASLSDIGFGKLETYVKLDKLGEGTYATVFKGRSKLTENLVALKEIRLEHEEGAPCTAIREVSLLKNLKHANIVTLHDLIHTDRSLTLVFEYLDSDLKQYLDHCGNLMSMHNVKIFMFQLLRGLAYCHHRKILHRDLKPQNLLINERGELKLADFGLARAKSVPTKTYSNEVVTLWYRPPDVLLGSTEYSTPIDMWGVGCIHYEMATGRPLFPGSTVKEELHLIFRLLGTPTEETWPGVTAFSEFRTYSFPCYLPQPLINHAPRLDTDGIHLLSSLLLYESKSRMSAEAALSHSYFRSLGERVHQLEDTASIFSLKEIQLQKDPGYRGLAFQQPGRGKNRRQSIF", "assay": "Selectivity interaction (KinomeScan (DiscoverX)) EUB0000092b CDK18", "settings": "at 10 µM"}, "[5]": {"target": "T2, Ephrin type-B receptor 6 (Homo sapiens) (UniProt O15197)", "T2 sequence (whole entry)": "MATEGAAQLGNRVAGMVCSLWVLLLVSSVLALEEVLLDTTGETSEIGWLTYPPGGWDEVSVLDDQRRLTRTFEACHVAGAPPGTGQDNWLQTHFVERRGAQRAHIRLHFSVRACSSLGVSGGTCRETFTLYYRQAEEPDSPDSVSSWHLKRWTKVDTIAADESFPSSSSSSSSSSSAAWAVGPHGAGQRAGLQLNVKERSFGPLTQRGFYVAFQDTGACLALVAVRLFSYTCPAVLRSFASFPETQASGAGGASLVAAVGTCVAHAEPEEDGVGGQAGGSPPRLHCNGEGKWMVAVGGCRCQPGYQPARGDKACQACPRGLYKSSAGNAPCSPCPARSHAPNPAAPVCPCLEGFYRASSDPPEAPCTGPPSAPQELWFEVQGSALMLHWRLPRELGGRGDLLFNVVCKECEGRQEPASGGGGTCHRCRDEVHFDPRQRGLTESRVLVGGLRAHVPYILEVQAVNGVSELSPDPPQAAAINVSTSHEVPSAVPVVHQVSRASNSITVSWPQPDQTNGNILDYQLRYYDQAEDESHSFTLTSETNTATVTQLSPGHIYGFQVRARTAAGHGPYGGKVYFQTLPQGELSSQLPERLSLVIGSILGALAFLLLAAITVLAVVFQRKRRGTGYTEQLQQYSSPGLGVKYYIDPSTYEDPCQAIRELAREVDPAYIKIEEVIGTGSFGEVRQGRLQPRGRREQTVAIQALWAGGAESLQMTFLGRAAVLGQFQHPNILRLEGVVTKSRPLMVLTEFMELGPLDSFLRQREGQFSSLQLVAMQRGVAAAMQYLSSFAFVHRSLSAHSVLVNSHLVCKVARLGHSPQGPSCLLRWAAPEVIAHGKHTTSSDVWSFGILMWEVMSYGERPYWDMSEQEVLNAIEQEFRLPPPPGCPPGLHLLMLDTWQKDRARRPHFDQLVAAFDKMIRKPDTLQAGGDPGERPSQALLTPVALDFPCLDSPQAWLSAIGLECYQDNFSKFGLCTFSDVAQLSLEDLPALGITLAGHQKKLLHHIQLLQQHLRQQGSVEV", "assay": "Selectivity interaction (KinomeScan (DiscoverX)) EUB0000092b EPHB6", "settings": "at 10 µM"}}, "data": [{"smiles": "N#Cc1cccc(-c2c[nH]c3ncnc(N4CCOCC4)c23)c1", "values": [{"measurement": "% of control", "setting": "[1]", "result": 100, "unit": "%"}]}, {"smiles": "COc1cc(N(C)c2ccnc3ccc(C(F)(F)F)cc23)cc(OC)c1OC", "values": [{"measurement": "% binding", "setting": "[2]", "result": 95, "unit": "%"}]}, {"smiles": "O=C(NOC[C@H](O)CO)c1ccc(F)c(F)c1Nc1ccc(I)cc1F", "values": [{"measurement": "% of control", "setting": "[3]", "result": 100, "unit": "%"}]}, {"smiles": "CCC(=O)N1CCN(c2ccc(-n3c(=O)ccc4cnc5ccc(-c6cnc7ccccc7c6)cc5c43)cc2C(F)(F)F)CC1", "values": [{"measurement": "% of control", "setting": "[4]", "result": 97, "unit": "%"}, {"measurement": "% of control", "setting": "[5]", "result": 80, "unit": "%"}]}]}
